Test results as given in US11180462B2, “Microbiocidal oxadiazole derivatives” (SYNGENTA PARTICIPATIONS AG, priority 2015, dated 2021).

Columns and labels:
[1] = tested on: Puccinia recondita f. Sp. Tritici; assay: Fungicidal activity against Puccinia recondita f. sp. tritici / wheat / leaf disc curative (brown rust); assay type: in vivo; details: foliar, 24 h, 200 ppm in the applied formulation, wheat leaf segments, curative (applied 1 day after inoculation), compared to untreated control leaf disks, read-out: disease control
How it was run: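 Inoculate cv. Kanzler segments on agar; hold dark, 19° C, 75% RH. Spray diluted formulated compound at day 1. Incubate 12 h light/12 h dark, same temperature and humidity; score % control vs untreated 6–8 days later.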

[2] = tested on: Puccinia recondita f. Sp. Tritici; assay: Fungicidal activity against Puccinia recondita f. sp. tritici / wheat / leaf disc preventative (brown rust); assay type: in vivo; details: foliar, 200 ppm in the applied formulation, wheat leaf segments, preventative, compared to untreated control leaf disks, read-out: disease control
How it was run: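 200 ppm spray on wheat cv. Kanzler leaf segments; spore inoculation +1 day; 19° C., 75% rh, 12 h/12 h light cycle; single rating of % control vs untreated at 7 to 9 days.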

[3] = tested on: Glomerella lagenarium (Colletotrichum lagenarium); assay: Fungicidal activity against Glomerella lagenarium (Colletotrichum lagenarium) liquid culture / cucumber / preventative (anthracnose); assay type: cell-based; details: Colletotrichum orbiculare; 20 ppm in the applied formulation; liquid culture (PDB), growth inhibition measured photometrically after 3 to 4 days; compared to untreated control; read-out: disease control
How it was run: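 Percent activity against the untreated check was derived from photometric growth measurements made 2 to 7 days after conidia in potato dextrose broth were combined with compound at 20 ppm. Cultures were kept dark at 24 °C and 96% humidity.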

COCCN(Cc1ccc(-c2noc(C(F)(F)F)n2)cc1)C(=O)C1=CCCC1 [Compound 1.333, N-(2-methoxyethyl)-N-[[4-[5-(trifluoromethyl)-1,2,4-oxadiazol-3-yl]phenyl]methyl]-cyclopentene-1-carboxamide]
≥ 80%: pest or weed control at 200 ppm [1] | pest or weed control at 200 ppm [2] | inhibition of growth at 20 ppm [3]

COCCN(Cc1ccc(-c2noc(C(F)(F)F)n2)cc1)C(=O)C1CSC1 [Compound 1.334]
≥ 80%: pest or weed control at 200 ppm [1] | pest or weed control at 200 ppm [2] | inhibition of growth at 20 ppm [3]

COCCN(Cc1ccc(-c2noc(C(F)(F)F)n2)cc1)C(=O)CC(C)C [Compound 1.336, N-(2-methoxyethyl)-3-methyl-N-[[4-[5-(trifluoromethyl)-1,2,4-oxadiazol-3-yl]phenyl]methyl]-butanamide]
≥ 80%: pest or weed control at 200 ppm [1] | pest or weed control at 200 ppm [2] | inhibition of growth at 20 ppm [3]

COCCOCC(=O)N(CCOC)Cc1ccc(-c2noc(C(F)(F)F)n2)cc1 [Compound 1.340, 2-(2-methoxyethoxy)-N-(2-methoxyethyl)-N-[[4-[5-(trifluoromethyl)-1,2,4-oxadiazol-3-yl]phenyl]methyl]-acetamide]
≥ 80%: pest or weed control at 200 ppm [1] | pest or weed control at 200 ppm [2] | inhibition of growth at 20 ppm [3]

C#CC(=O)N(CCOC)Cc1ccc(-c2noc(C(F)(F)F)n2)cc1 [Compound 1.347, N-(2-methoxyethyl)-N-[[4-[5-(trifluoromethyl)-1,2,4-oxadiazol-3-yl]phenyl]methyl]prop-2-ynamide]
≥ 80%: pest or weed control at 200 ppm [1] | pest or weed control at 200 ppm [2] | inhibition of growth at 20 ppm [3]

COCCN(Cc1ccc(-c2noc(C(F)(F)F)n2)cc1)C(=O)COC(C)=O [Compound 1.348, [2-[2-methoxyethyl-[[4-[5-(trifluoromethyl)-1,2,4-oxadiazol-3-yl]phenyl]methyl]-amino]-2-oxo-ethyl] acetate]
≥ 80%: pest or weed control at 200 ppm [1] | pest or weed control at 200 ppm [2] | inhibition of growth at 20 ppm [3]

COCCN(Cc1ccc(-c2noc(C(F)(F)F)n2)cc1)C(=O)c1ccoc1 [Compound 1.362, N-(2-methoxyethyl)-N-[[4-[5-(trifluoromethyl)-1,2,4-oxadiazol-3-yl]phenyl]methyl]-furan-3-carboxamide]
≥ 80%: pest or weed control at 200 ppm [1] | pest or weed control at 200 ppm [2] | inhibition of growth at 20 ppm [3]

COCCN(Cc1ccc(-c2noc(C(F)(F)F)n2)cc1)C(C)=O [Compound 1.364, N-(2-methoxyethyl)-N-[[4-[5-(trifluoromethyl)-1,2,4-oxadiazol-3-yl]phenyl]methyl]-acetamide]
≥ 80%: pest or weed control at 200 ppm [1] | pest or weed control at 200 ppm [2] | inhibition of growth at 20 ppm [3]

CCCCC(=O)N(CCOC)Cc1ccc(-c2noc(C(F)(F)F)n2)cc1 [Compound 1.366, N-(2-methoxyethyl)-N-[[4-[5-(trifluoromethyl)-1,2,4-oxadiazol-3-yl]phenyl]methyl]-pentanamide]
≥ 80%: pest or weed control at 200 ppm [1] | pest or weed control at 200 ppm [2] | inhibition of growth at 20 ppm [3]

CC=CC(=O)N(Cc1ccc(-c2noc(C(F)(F)F)n2)cc1)C(C)CC (stereo not drawn) [Compound 1.370, N-sec-butyl-N-[[4-[5-(trifluoromethyl)-1,2,4-oxadiazol-3-yl]phenyl]methyl] but-2-enamide]
≥ 80%: pest or weed control at 200 ppm [1] | pest or weed control at 200 ppm [2] | inhibition of growth at 20 ppm [3]

CCC(C)N(Cc1ccc(-c2noc(C(F)(F)F)n2)cc1)C(=O)C1CC1(F)F (stereo not drawn) [Compound 1.371, 2,2-difluoro-N-sec-butyl-N-[[4-[5-(trifluoromethyl)-1,2,4-oxadiazol-3-yl]phenyl]methyl]-cyclopropane-carboxamide]
≥ 80%: pest or weed control at 200 ppm [1] | pest or weed control at 200 ppm [2] | inhibition of growth at 20 ppm [3]

CCCC(=O)N(Cc1ccc(-c2noc(C(F)(F)F)n2)cc1)C(C)CC (stereo not drawn) [Compound 1.373, N-sec-butyl-N-[[4-[5-(trifluoromethyl)-1,2,4-oxadiazol-3-yl]phenyl]methyl]-butanamide]
≥ 80%: pest or weed control at 200 ppm [1] | pest or weed control at 200 ppm [2] | inhibition of growth at 20 ppm [3]

CC=C(C)C(=O)N(Cc1ccc(-c2noc(C(F)(F)F)n2)cc1)C(C)CC (stereo not drawn) [Compound 1.374, 2-methyl-N-sec-butyl-N-[[4-[5-(trifluoromethyl)-1,2,4-oxadiazol-3-yl]phenyl]methyl]but-2-enamide]
≥ 80%: pest or weed control at 200 ppm [1] | pest or weed control at 200 ppm [2] | inhibition of growth at 20 ppm [3]

CCC(C)N(Cc1ccc(-c2noc(C(F)(F)F)n2)cc1)C(=O)CC1CC1 (stereo not drawn) [Compound 1.375, 2-cyclopropyl-N-sec-butyl-N-[[4-(5-(trifluoromethyl)-1,2,4-oxadiazol-3-yl]phenyl]methyl]-acetamide]
≥ 80%: pest or weed control at 200 ppm [1] | pest or weed control at 200 ppm [2] | inhibition of growth at 20 ppm [3]

CCC(C)N(Cc1ccc(-c2noc(C(F)(F)F)n2)cc1)C(=O)C1CSC1 (stereo not drawn) [Compound 1.378, N-sec-butyl-N-[[4-[5-(trifluoromethyl)-1,2,4-oxadiazol-3-yl]phenyl]methyl]-thietane-3-carboxamide]
≥ 80%: pest or weed control at 200 ppm [1] | pest or weed control at 200 ppm [2] | inhibition of growth at 20 ppm [3]

CCC(C)N(Cc1ccc(-c2noc(C(F)(F)F)n2)cc1)C(=O)C1(C)CC1 (stereo not drawn) [Compound 1.388, 1-methyl-N-sec-butyl-N-[[4-[5-(trifluoromethyl)-1,2,4-oxadiazol-3-yl]phenyl]methyl]-cyclopropane-carboxamide]
≥ 80%: pest or weed control at 200 ppm [1] | pest or weed control at 200 ppm [2] | inhibition of growth at 20 ppm [3]

C#CC(=O)N(Cc1ccc(-c2noc(C(F)(F)F)n2)cc1)C(C)CC (stereo not drawn) [Compound 1.391, N-sec-butyl-N-[[4-[5-(trifluoromethyl)-1,2,4-oxadiazol-3-yl]phenyl]methyl]-prop-2-ynamide]
≥ 80%: pest or weed control at 200 ppm [1] | pest or weed control at 200 ppm [2] | inhibition of growth at 20 ppm [3]

CCC(C)N(Cc1ccc(-c2noc(C(F)(F)F)n2)cc1)C(=O)C=CC(C)=O (stereo not drawn) [Compound 1.396, 4-oxo-N-sec-butyl-N-[[4-[5-(trifluoromethyl)-1,2,4-oxadiazol-3-yl]phenyl]methyl]-pent-2-enamide]
≥ 80%: pest or weed control at 200 ppm [1] | pest or weed control at 200 ppm [2] | inhibition of growth at 20 ppm [3]

CCC(C)N(Cc1ccc(-c2noc(C(F)(F)F)n2)cc1)C(=O)C1CCCN1C(C)=O (stereo not drawn) [Compound 1.400, 1-acetyl-N-sec-butyl-N-[[4-[5-(trifluoromethyl)-1,2,4-oxadiazol-3-yl]phenyl]methyl]-pyrrolidine-2-carboxamide]
≥ 80%: pest or weed control at 200 ppm [1] | pest or weed control at 200 ppm [2] | inhibition of growth at 20 ppm [3]

CCC(C)N(Cc1ccc(-c2noc(C(F)(F)F)n2)cc1)C(=O)C1CC1 (stereo not drawn) [Compound 1.406, N-sec-butyl-N-[[4-[5-(trifluoromethyl)-1,2,4-oxadiazol-3-yl]phenyl]methyl]-cyclopropane-carboxamide]
≥ 80%: pest or weed control at 200 ppm [1] | pest or weed control at 200 ppm [2] | inhibition of growth at 20 ppm [3]

O=C(C1CCCCO1)N(Cc1ccc(-c2noc(C(F)(F)F)n2)cc1)CC1CCCO1 (stereo not drawn) [Compound 1.411, N-(tetrahydrofuran-2-ylmethyl)-N-[[4-[5-(trifluoromethyl)-1,2,4-oxadiazol-3-yl]phenyl]methyl]-tetrahydropyran-2-carboxamide]
≥ 80%: pest or weed control at 200 ppm [1] | pest or weed control at 200 ppm [2] | inhibition of growth at 20 ppm [3]
